Measured values as given in US8071645B2, “Systems and methods for treating human inflammatory and proliferative diseases and wounds, with fatty acid metabolism inhibitors and/or glycolytic inhibitors” (The Regents of the University of Colorado, priority 2003, dated 2011).

Tests used:
L1210 DDP cells = assay: mitochondrial membrane potential (MitoTracker) of L1210 DDP cells; type: cell-based; settings: 24 hours of incubation, FIG. 11
Method: Flow Cytometry. Cells were harvested, counted, and resuspended at 10^6 cells/100 μl of PBS containing 2.5% fetal calf serum in preparation for flow cytometric analysis. Cells were stained for intracellular H202 using 6-carboxy-2′,7′-dichlorodihydrofluorescein diacetate (DCF-DA, Molecular Probes, Eugene, Oreg.). Briefly, cells were incubated at 37° with 1 mM DCF-DA for 20 minutes, washed twice in PBS containing 2.5% fetal calf serum and analyzed flow cytometrically. Mitochondrial membrane potential was assessed using Mitotracker Red (CM-H2XROS, Molecular Probes, Eugene, Oreg.). […] The cells were incubated at 37° for 20 minutes, washed twice in PBS containing 2.5% fetal calf serum and analyzed flow cytometrically. Data were acquired on a Coulter Elite Epics or Excel flow cytometer (Coulter, Hialeah, Fla.) and analyzed with CellQuest software, (Becton Dickinson, San Jose, Calif.). […] Each sample population was classified for cell size (forward scatter) and complexity (side scatter), gated on a population of interest and evaluated using 5,000 cells. […]
We measured the effects of etomoxir on metabolism by measuring mitochondrial membrane potential with a fluorescent dye (Mitotracker Red, Molecular Probes, Eugene, Oreg.) which fluoresces as a function of mitochondrial potential. […]

[1] = test system: RD cells (rhabdomyosarcoma cells); assay: percent death of RD cells by flow cytometry; type: cell-based
Method: Dot plots as a function of live versus dead cells. The cells were cultured at a concentration of 0.5 to 1 million cells per ml. Cells were untreated or treated with etomoxir or 2-deoxy-D-glucose at a concentration of 2.5 mM at the indicated concentrations for either 24 or 48 hours. In additional experiments, under each of these culture conditions, the cells were cultured for 24 hours at which time point, polyclonal anti-UCP-2 was added at a 1:1000 dilution of stock provided by Alpha Diagnostics, San Antonio, Tex. Cells were harvested and analyzed by flow cytometry. Each dot on the dot plots of FIGS. 1, 3, 5, 7, 9, and 11 represents one cell. Five thousand cells were assessed for forward scatter (FS), as a function of cell size, versus side scatter (SS), as a function of cellular granularity. The upper ellipse represents live cells by these criterion and the lower ellipse in each dot plot represents the dead cells.
Statistical Analysis, Percents, and Geometric Mean Values Percents. Gating is a tool provided by Cell Quest software and allows for the analysis of a certain population of cells. Gating around both the live and dead cell populations gave a percent of the cell numbers that was in each population. After the gates were drawn, a percent value of dead cells was calculated by taking the number of dead cells divided by the number of total cells and multiplying by one hundred.
Referring to FIGS. 29 and 30, RD cells (rhabdomyosarcoma cells—not drug resistant), cultured as described above under “Materials and Methods” were untreated or treated with etomoxir, with 2-deoxy-D-glucose, or with a combination of etomoxir and 2-deoxy-D-glucose, at concentrations indicated in FIG. 29 for 24 hours. Cells were harvested and analyzed by flow cytometry. […] The percent of cell deaths for RD cells after 24 hours was: (a) 31% when untreated, (b) 57% when treated with etomoxir alone, (c) 46% when treated with 2-deoxy-D-glucose alone, and (d) 66% when treated with the combination of etomoxir and 2-deoxy-D-glucose.
Referring to FIGS. 33 and 34, RD cells, cultured as described in Example 22, were untreated or treated with etomoxir, with 2-deoxy-D-glucose, or with a combination of etomoxir and 2-deoxy-D-glucose, at concentrations indicated in FIG. 33 for 48 hours. Cells were harvested and analyzed by flow cytometry. […] The percent of cell deaths for RD cells after 48 hours was: (a) 36% when untreated, (b) 64% when treated with etomoxir alone, (c) 63% when treated with 2-deoxy-D-glucose alone, and (d) 68% when treated with the combination of etomoxir and 2-deoxy-D-glucose.

## CCOC(=O)C1(CCCCCCOc2ccc(Cl)cc2)CO1 (stereo not drawn) [etomoxir, 2-(6-(4-chlorophenoxy)-hexyl)-oxirane-2-carboxylic acid ethyl ester]
L1210 DDP cells
  mitochondrial membrane potential (MitoTracker): increase
[1]; 24 hours, concentrations as in FIG. 29
  percent of cell deaths: 57%
[1]; 48 hours, concentrations as in FIG. 33
  percent of cell deaths: 64%
